Laboratory results taken from ChEMBL document CHEMBL3596135, “A critical evaluation of pyrrolo[2,3-d]pyrimidine-4-amines as Plasmodium falciparum apical membrane antigen 1 (AMA1) inhibitors” (Medchemcomm, 2014).
Structures can show the parent of a compound that is named as a salt. Calls of active or inactive are those of the source. The rule behind the calls is not given here.

Legend:
[1] = target: T1, Apical membrane antigen 1 (Plasmodium falciparum (isolate 3D7), UniProt Q7KQK5); assay: Binding affinity to recombinant His-tagged Plasmodium falciparum 3D7 AMA1 assessed as inhibition of interaction with biotin-tagged RON2 peptide after 30 mins by AlphaScreen assay
T1 sequence (Q7KQK5 whole entry): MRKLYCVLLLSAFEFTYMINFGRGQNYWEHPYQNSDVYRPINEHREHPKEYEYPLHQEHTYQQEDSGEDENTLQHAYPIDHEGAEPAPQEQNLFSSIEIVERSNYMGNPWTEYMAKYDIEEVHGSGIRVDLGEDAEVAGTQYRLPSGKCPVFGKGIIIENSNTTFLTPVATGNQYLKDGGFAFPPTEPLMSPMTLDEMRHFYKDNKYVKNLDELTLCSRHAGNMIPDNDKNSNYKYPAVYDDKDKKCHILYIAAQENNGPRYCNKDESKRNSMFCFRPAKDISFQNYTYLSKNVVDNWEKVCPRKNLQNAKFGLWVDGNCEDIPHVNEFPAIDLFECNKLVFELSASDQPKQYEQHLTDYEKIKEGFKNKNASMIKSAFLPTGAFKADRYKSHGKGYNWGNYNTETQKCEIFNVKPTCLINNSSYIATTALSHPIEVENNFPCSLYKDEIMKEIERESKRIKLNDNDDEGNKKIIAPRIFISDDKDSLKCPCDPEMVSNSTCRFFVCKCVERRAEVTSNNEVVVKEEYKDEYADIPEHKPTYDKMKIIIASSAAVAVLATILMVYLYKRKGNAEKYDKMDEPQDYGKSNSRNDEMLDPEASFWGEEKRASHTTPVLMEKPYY

Plasmodium falciparum [2] = assay: Antimalarial activity against Plasmodium falciparum FVO schizont infected in RBC assessed as inhibition of merozoite invasion after 3 to 4 hrs by flow cytometric analysis; assay type: functional, organism-based
[3] = Self-aggregating activity of the compound in phosphate buffer at pH 7.4 at 5 to 80 uM by 1D 1H-NMR spectroscopic analysis in absence of Tween 20; assay type: physicochemical; conditions: pH 7.4, 80 µM
[4] = Self-aggregating activity of the compound in phosphate buffer at pH 7.4 at 80 uM by 1D 1H-NMR spectroscopic analysis in presence of Tween 20; assay type: physicochemical; conditions: pH 7.4, 80 µM
[5] = Solubility of the compound in phosphate buffer at pH 7.4; assay type: physicochemical
Plasmodium falciparum [6] = assay: Antimalarial activity against synchronised early trophozoite stage of Plasmodium falciparum 3D7 assessed as parasite growth inhibition measured after two invasion cycles by flow cytometric analysis; assay type: functional, organism-based
[7] = target: T1, Apical membrane antigen 1; assay: Binding affinity to Plasmodium falciparum 3D7 AMA1 (104 to 442) by SPR analysis
[8] = target: T2, Apical membrane antigen 1 (Plasmodium falciparum (isolate 3D7)) (UniProt Q7KQK5); assay: Binding affinity to Plasmodium falciparum 3D7 AMA1 (104 to 442) up to 200 uM by SPR analysis
T2 sequence (whole entry): T1 sequence (Q7KQK5 whole entry)

[9] = target: T2, Apical membrane antigen 1 (Plasmodium falciparum (isolate 3D7)); assay: Competitive binding affinity to Plasmodium falciparum 3D7 AMA1 (104 to 442) at 80 uM after 200 milisecs by CPMG binding assay in presence of R1 peptide and absence of detergent
[10] = target: T2, Apical membrane antigen 1 (Plasmodium falciparum (isolate 3D7)); assay: Competitive binding affinity to Plasmodium falciparum 3D7 AMA1 (104 to 442) at 80 uM after 200 milisecs by CPMG binding assay in presence of RON2 peptide and absence of detergent
[11] = target: T2, Apical membrane antigen 1 (Plasmodium falciparum (isolate 3D7)); assay: Competitive binding affinity to Plasmodium falciparum 3D7 AMA1 (104 to 442) at 80 uM after 200 milisecs by CPMG binding assay in presence of R1 peptide and Tween 20
[12] = target: T2, Apical membrane antigen 1 (Plasmodium falciparum (isolate 3D7)); assay: Competitive binding affinity to Plasmodium falciparum 3D7 AMA1 (104 to 442) at 80 uM after 200 milisecs by CPMG binding assay in presence of RON2 peptide and Tween 20

| SMILES | Activity [3] | Activity [4] | solubility [5] | Kd [7] [µM] | growth inhibition (GI) (Plasmodium falciparum [6]) | further results |
| --- | --- | --- | --- | --- | --- | --- |
| Clc1cccc(C(c2ccc3[nH]cnc3c2)n2ccnc2)c1 (stereo unspecified) [LIAROZOLE HYDROCHLORIDE] |  |  |  |  |  | IC50 [1]: 29 µM |
| CN(C)c1ncnc2c1c(-c1ccc(Oc3ccccc3)cc1)cn2C1CCCC1 | Active | Not Active | soluble | ≥ 1000 |  | IC50 (Plasmodium falciparum [2]): 6 µM; IC50 (Plasmodium falciparum [6]): > 1000 µM |
| CCn1cc(-c2ccc(OC)cc2)c2c(N)ncnc21 | Not Active | Not Active | soluble | ≥ 1000 | Active |  |
| CN(C)CCCN1c2ccccc2C(C)(C)c2ccccc21 [DIMETACRINE] |  |  |  |  |  | IC50 [1]: 28 µM |
| Cn1cc(-c2cccc(N)c2)c2c(N)ncnc21 | Not Active | Not Active | soluble | ≥ 1000 | Active |  |
| Clc1ncnc2c1c(Br)cn2C1CCCC1 |  |  |  |  |  | Activity [8]: inactive |
| COc1ccc(-c2cn(C)c3ncnc(N)c23)cc1 | Not Active | Not Active | soluble | ≥ 1000 | Active |  |
| Clc1[nH]cnc2nccc1-2 |  |  |  |  |  | Activity [8]: inactive |
| Cn1cc(-c2ccc(N)cc2)c2c(N)ncnc21 | Not Active | Not Active | soluble | ≥ 1000 | Active |  |
| COc1cccc(-c2cn(C)c3ncnc(N)c23)c1 | Not Active | Not Active | soluble | ≥ 1000 | Active |  |
| Cn1cc(-c2ccc(F)cc2)c2c(N)ncnc21 | Not Active | Not Active | soluble | ≥ 1000 | Active |  |
| Cn1cc(-c2ccccc2)c2c(N)ncnc21 | Not Active | Not Active | soluble | ≥ 1000 | Active |  |
| Nc1ncnc2c1c(-c1ccc(Oc3ccccc3)cc1)cn2C1CCCC1 | Active | Not Active | soluble | ≥ 1000 |  | IC50 (Plasmodium falciparum [2]): 30 µM; IC50 (Plasmodium falciparum [6]): > 1000 µM |
| COc1ccccc1-c1cn(C)c2ncnc(N)c12 | Not Active | Not Active | soluble | ≥ 1000 | Active |  |
| COc1ccc(-c2cn(C3CCCC3)c3ncnc(N)c23)cc1 | Not Active | Not Active | soluble | ≥ 1000 |  | IC50 (Plasmodium falciparum [2]): 9.8 µM; Activity [9]: Active; Activity [10]: Active; Activity [11]: Active; Activity [12]: Active; IC50 (Plasmodium falciparum [6]): 63 µM |

Continued, in another order:

| Activity [3] | Activity [4] | solubility [5] | Kd [7] [µM] | SMILES | growth inhibition (GI) (Plasmodium falciparum [6]) | further results |
| --- | --- | --- | --- | --- | --- | --- |
| Not Active | Not Active | soluble | ≥ 1000 | Cn1cc(-c2ccncc2)c2c(N)ncnc21 | Active |  |
| Not Active | Not Active | soluble | ≥ 1000 | Cn1cc(-c2cccc(F)c2)c2c(N)ncnc21 |  | IC50 (Plasmodium falciparum [6]): < 31 µM |
| Not Active | Not Active | soluble | ≥ 1000 | Cn1cc(-c2ccccc2F)c2c(N)ncnc21 | Active |  |
